Series [1] in a line: method code SF-AS, from DOI: 10.1007/s11095-005-4582-3, PMID: 15948031.

From the SangsterLogP compilation come the findings set out here.

What is called logP is the decadic logarithm of the partition coefficient of the neutral form, usually between octanol and water. Higher therefore signals higher lipophilicity.

In the case of `O=Cc1ssc(=S)c1Cl`, in series [1], the lipophilicity (logP) stood at 2.95.
Compound `CC(=O)c1cc(=O)ss1` gave a lipophilicity (logP) of 1.14.
The same measure, in the same setting: the same measure for `CC(=O)c1ssc(=O)c1-c1ccccc1`: 2.5.
Compound `Cc1c(C=O)ssc1=O` gave a logP in series [1] of 1.62.
Compound `CCc1c(C=O)ssc1=S` yielded a logP in series [1] of 3.15.
As to `CCc1c(C(C)=O)ssc1=S`, the logP came out at 3.21.
The compound `O=Cc1cc(=S)ss1` showed a logP of 2.53.
In turn, `COc1c(C=O)ssc1=S` yielded a logP in series [1] of 2.56.
Same read-out and setting: as for `O=Cc1ssc(=O)c1Cl`, the figure is 2.16.
Compound `CC(=O)c1ssc(=S)c1-c1ccccc1` came in with a logP of 3.31.
Same read-out and setting: the same measure for `CC(=O)c1cc(=S)ss1`: 2.18.
Still for that read-out and setting: the same measure for `CC(=O)c1ssc(=O)c1C`: 1.58; for `COc1c(C=O)ssc1=O`: 1.83.
For the compound `O=Cc1ssc(=S)c1-c1ccccc1`, in series [1], the logP is 3.43.
The compound `O=Cc1ssc(=O)c1-c1ccccc1` came in with a logP of 2.94.
Same read-out and setting: the same measure for `CCc1c(C(C)=O)ssc1=O`: 2.12; for `O=Cc1cc(=O)ss1`: 1.81.
`CCc1c(C=O)ssc1=O` returned a logP in series [1] of 2.58.
Turning to `Cc1c(C=O)ssc1=S`, the logP came out at 2.87.
